# Results as given in patent US20140127288A1, “LIPOSOME CONTAINING PYRROLOQUINOLINE QUINONE AND SUGAR” (MITSUBISHI GAS CHEMICAL COMPANY, INC., priority 2011, published 2014).
# Test system: Chinese hamster ovary cells (CHO-DHFR)
# Test: Proliferation study (WST assay)
# Format: cell-based
# Settings: vs cells treated with culture medium alone; one day incubation
# Description: Chinese hamster ovary cells (CHO-DHFR; obtained from Dainippon Sumitomo Pharma Co., Ltd.) was cultured in the culture medium, α-MEM+10% fetal calf serum, in an atmosphere of 5% CO2 at 37° C. A 96-well microplate (IWAKI & Co., Ltd.) was used and cells were added to each well at 5000 cells with 100 μl of the culture medium, and the microplate was incubated overnight. After removing the culture medium, a new culture medium containing the liposome composition prepared in Examples 1 to 4 and Comparative Examples 1 to 3 at a predetermined concentration was added to each well. After one day incubation, a test solution in a WST Assay Kit was reacted for 1 hour according to a procedure of the Kit (Dojindo Laboratories), and the absorbance of each well was measured at 450 nm. In WST Assay, the absorbance obtained is proportional to the number of live cells. The liposome compositions prepared in Examples 1 to 4 and Comparative Examples 1 to 3 and […] (for Comparative Example 4) were used as samples, and the samples were diluted by the culture medium and subjected to a test. The concentrations used in the test were 500, 250, 125, 62, 31, 16, 8, 4, 2, 1, 0.5, and 0 μM. In Comparative Example 2, the concentration of the liposome composition was used as the test concentration of the sample. The test was conducted for each sample twice and the average was calculated. […]
compound,measurement,value
"O=C(O)c1cc(C(=O)O)c2c(n1)C(=O)C(=O)c1cc(C(=O)O)[nH]c1-2 [Comparative Example 4, Pyrroloquinoline quinone disodium]",Concentration of growth inhibition (total cell number decreases by 10%),500 µM
